{
  "source": "patent US20220273614A1",
  "about": "“INTRAVENOUS VITAMIN C THERAPY PROTOCOL FOR THE TREATMENT OF CANCER” (Riordan Clinic, priority 2019, published 2022)",
  "key": {"terminal cancer patients [1]": {"tested_on": "terminal cancer patients", "conditions": "10 g/day continuous IV infusion for 10 days, then oral 10-30 g/day; 100 terminal cancer patients; cited from earlier work"}, "[2]": {"assay": "Plasma ascorbate during continuous IVC infusion (Riordan Phase I trial)", "format": "in vivo, human", "conditions": "continuous infusion 150-710 mg/kg/day, cancer patients", "protocol": "(§1) The second trial of the treatment of cancer patients by continuous infusions was conducted by Dr. Riordan. In this Phase I clinical trial (hereafter referred to as the Riordan trial), patients were administered continuous infusions using an infusion pump [See for example Ref 1]. In the Riordan Clinic trial, patients were treated by continuous infusion, which was administered over much longer periods of time than bolus intermittent treatments. For most patients, the duration of the continuous infusion was at least 20 hours, as the duration of bolus infusion is from one hour to three hours, depending on the dosage.\n(§2) The trial lasted eight weeks and involved terminal patients with poor prognosis. Twenty-four (24) subjects were given continuous IVC at doses between 150 and 710 mg/kg/day (10-50 grams per day). Most of the patients had colon cancer with liver and lung metastasis and three patients had pancreatic or liver cancer. All patients had several chemotherapy/radiation treatments before entering the study.\nThe most obvious effect of IVC therapy was to increase patient vitamin C levels. […] In fact, ten out of twenty-four subjects entered the trial with plasma ascorbate concentrations undetectable by the colorimetric ascorbate assay used at that time, with another four having ascorbate concentrations below the normal range (FIG. 1). IVC infusion increased plasma levels to 1 mM. […]"}, "[3]": {"tested_on": "patients suffering from cancer", "assay": "Pulse-press intravenous vitamin C protocol in cancer patients (Example 3)", "format": "in vivo, human", "protocol": "Intravenous vitamin C therapy is given by intermittent, high dose infusion that involves administering high-dose vitamin C (15-100 grams) over a 1-2 hour window and repeated twice weekly (every 2-4 days). The intermittent frequency of high-dose administration is referred to as a PULSED approach or as a PULSE dose.\nAs an adjunct to high-dose intermittent vitamin C infusions, experiments described herein have led to the developments of a method for administering continuous low to mid doses of vitamin C infusion using an elastomeric pump (non-electric) infusion pump over an 8 to 48 hour window. This method of continuous infusion targets a therapeutic dose anywhere between 4 to 50 grams of vitamin C per infusion window and is referred to as a PRESS approach or a PRESS dose.\nThe intravenous vitamin C+(IVC+) protocol for the treatment of cancer, and other chronic conditions, described herein combines the pulse approach with a press protocol into a PULSE-PRESS approach whereby vitamin C infusions alternate between a high-dose rapid infusion with a low to mid dose continuous infusion.\nThis clinical application of the IVC+ Protocol is centered on a 2-day cycle of a rapid PULSE infusion immediately followed by a PRESS continuous infusion at a rate of […] of Vitamin C per hour. Over the two week period, each pulse dose of vitamin C is increased to a therapeutic dose as outlined in the original Riordan IVC Protocol [See for example. Ref 1]. Each week back to back pulse-press doses are given followed by a final pulse dose leading into a rest period. These cyclic rest periods are important wherein they provide recovery time necessary for the patient to assimilate the oxidative stress generated within the body.\nThe protocol has been used on about six subjects to ascertain safety, feasibility and usability of the pump and in coordinating the process with existing therapies. The types of cancer for these patients varied."}, "terminal cancer patients [4]": {"tested_on": "terminal cancer patients", "assay": "Safety and adverse events of continuous IVC infusion (Riordan trial)", "format": "in vivo, human", "protocol": "as §1\nThe trial lasted eight weeks and involved terminal patients with poor prognosis. Twenty-four (24) subjects were given continuous IVC at doses between 150 and 710 mg/kg/day (10-50 grams per day). Most of the patients had colon cancer with liver and lung metastasis and three patients had pancreatic or liver cancer."}, "terminal cancer patients [5]": {"tested_on": "terminal cancer patients", "assay": "Lymphocyte and neutrophil counts and neutrophil-to-lymphocyte ratio in cancer patients on continuous IVC (updated analysis of Riordan trial)", "format": "in vivo, human", "protocol": "as §1, §2\n(§3) Recently, previously unpublished parameters from the clinical study were analyzed, including blood chemistry and blood count parameters that are reportedly related to patient prognosis and degree of inflammation [See for example Ref 2]. This included: absolute neutrophil and lymphocyte counts and the neutrophil-to-lymphocyte ratio; lactate dehydrogenase, an enzyme involved in tumor initiation, metastasis, and recurrence; creatinine, the depletion of which is associated with cachexia; and glucose, as hyperglycemia is common in cancer patients."}, "terminal cancer patients [6]": {"tested_on": "terminal cancer patients", "assay": "Blood chemistry (lactate dehydrogenase, glucose) and survival in cancer patients on continuous IVC (updated analysis of Riordan trial)", "format": "in vivo, human", "protocol": "as §1, §2, §3"}, "[7]": {"conditions": "a patient suffering from cancer"}, "[8]": {"conditions": "rate of increase of LDH before vs after treatment"}},
  "note": "“Also recorded” adds a separate entry of the source.",
  "data": [
    {"smiles": "O=C1O[C@H]([C@@H](O)CO)C(O)=C1O", "note": "[IVC, L-ascorbic acid]", "values": [
      {"measurement": "survival time and quality of life versus patients who had not received IVC", "setting": "terminal cancer patients [1]", "value": "increased survival time and improved quality of life"},
      {"measurement": "plasma ascorbate level reached during IVC infusion", "setting": "[2]", "value": 1, "unit": "mM"},
      {"measurement": "development of chemo resistance", "setting": "[3]; [7]", "value": "no signs of the development of chemo resistance"},
      {"measurement": "efficacy of treatment", "setting": "[3]; [7]", "value": "appeared efficacious"},
      {"measurement": "tolerability", "setting": "[3]; [7]", "value": "well-tolerated"},
      {"measurement": "tolerability", "setting": "[3]; pulse press protocol, about six subjects, various cancers", "value": "well tolerated"},
      {"measurement": "Grade 3 adverse events", "setting": "terminal cancer patients [4]; considered possibly related to the ascorbate therapy", "value": "Most of the Grade 3 events involved hypokalemia"},
      {"measurement": "side effects, overall severity", "setting": "terminal cancer patients [4]; continuous IVC infusion trial", "value": "mostly minor"},
      {"measurement": "renal function indicators BUN and creatinine", "setting": "terminal cancer patients [4]; during therapy", "value": "remained relatively stable"},
      {"measurement": "uric acid", "setting": "terminal cancer patients [4]; during therapy", "value": "decreased during therapy"},
      {"measurement": "grade of the most common side effects", "setting": "terminal cancer patients [4]; in vivo", "value": "generally minor (Grade 1)"},
      {"measurement": "dry skin or mouth", "setting": "terminal cancer patients [4]; of 24 subjects", "value": 7, "unit": "subjects"},
      {"measurement": "edema", "setting": "terminal cancer patients [4]; of 24 subjects", "value": 7, "unit": "subjects"},
      {"measurement": "fatigue", "setting": "terminal cancer patients [4]; of 24 subjects", "value": 6, "unit": "subjects"},
      {"measurement": "injector port occlusion", "setting": "terminal cancer patients [4]; of 24 subjects", "value": 10, "unit": "subjects"},
      {"measurement": "nausea", "setting": "terminal cancer patients [4]; of 24 subjects", "value": 11, "unit": "subjects"},
      {"measurement": "subjects with BUN increases during therapy", "setting": "terminal cancer patients [4]; of 24 subjects", "value": "four"},
      {"measurement": "median improvement in the lymphocyte count", "setting": "terminal cancer patients [5]; all patients with lymphocyte levels lower than normal range, continuous IVC", "value": 22, "unit": "%"},
      {"measurement": "neutrophil counts, tendency during treatment", "setting": "terminal cancer patients [5]; most of the patients", "value": "normalization of the neutrophil counts"},
      {"measurement": "rate of growth (change) of neutrophil-to-lymphocyte ratio (NLR)", "setting": "terminal cancer patients [5]; one week before treatment vs during treatment, continuous IVC", "value": "tended to decrease the rate of growth of NLR; also recorded: rate of change was decreased"},
      {"measurement": "neutrophil counts", "setting": "terminal cancer patients [5]; patients for whom neutrophil counts are elevated", "value": "reducing neutrophil counts"},
      {"measurement": "lymphocyte and neutrophil counts", "setting": "terminal cancer patients [5]; patients in whom these numbers are below normal", "value": "increase lymphocyte and neutrophil counts"},
      {"measurement": "median improvement in the lymphocyte count", "setting": "terminal cancer patients [5]; patients with severe lymphopenia who completed treatment, continuous IVC", "value": 69, "unit": "%"},
      {"measurement": "median survival time", "setting": "terminal cancer patients [6]; participants with initial LDH higher than normal range (LDH>245 U/L)", "value": 95, "unit": "days"},
      {"measurement": "blood glucose levels during IVC therapy", "setting": "terminal cancer patients [6]; patients with concentrations higher than normal range", "value": "decreased"},
      {"measurement": "patients with LDH rate of growth decreased", "setting": "terminal cancer patients [6]; [8]", "value": "38 % of patients"},
      {"measurement": "patients with LDH rate of growth increased", "setting": "terminal cancer patients [6]; [8]", "value": "28.6 % of patients"},
      {"measurement": "patients with LDH rate of growth not changed", "setting": "terminal cancer patients [6]; [8]", "value": "33.4 % of patients"},
      {"measurement": "median survival time", "setting": "terminal cancer patients [6]; subjects with normal initial LDH values", "value": 173, "unit": "days"}
    ]}
  ]
}
